This passage reports IC50 results from patent US8808702B2, “Sulfide, sulfoxide and sulfone chalcone analogues, derivatives thereof and therapeutic uses thereof” (Temple University-of the Commonwealth System of Higher …, priority 2006, dated 2014).

Experiment [1] concerns K562 (chronic myelogenous leukaemia). In words: Effect of compounds on tumor cell lines (assay of Latham et al.), K562. In kind it is cell-based. The settings on record: K562 cells, 96 hours after treatment, 1 μM to 100 μM; read-out: K 562 potency (IC50). In short, it runs like this:
(§1)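 K562 or DU145 cells plated at 2.5×10^4 cells/well, treated 24 h later with compound in DMSO at 1 μM to 100 μM (0.1 μM to 100 μM for one compound). Activity judged by microscopic observation after 96 h; where needed, viable cells counted by trypan blue exclusion.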

The subject of experiment [2] is DU145 (prostate cancer). In words: Effect of compounds on tumor cell lines (assay of Latham et al.), DU145. The settings on record: DU145 cells, 96 hours after treatment, 1 μM to 100 μM; read-out: DU 145 potency (IC50). Format: cell-based. In short, it runs like this:
as §1

One may read the IC50 as the concentration at which inhibition is half-maximal.

Bounds are passed on as bounds.

Take `CSc1ccc(/C=C(/SCc2ccc(Br)cc2)C(=O)c2ccc(C(=O)O)cc2)cc1` [Example 188]: the 50% inhibitory concentration (IC50) in experiment [1] and in experiment [2] was 25 to 50 µM each time.

With `O=C(/C(=C\c1cccc(Cl)c1Cl)SCc1ccc(Cl)cc1)c1ccc(Br)cc1` [Example 190], the IC50 in experiment [1] and in experiment [2] was 10 to 25 µM each time.

For `O=C(C(=Cc1cccc(Cl)c1Cl)SCc1ccc(Cl)cc1)c1ccc(Cl)cc1` [Example 191], the IC50 in experiment [1] lay in the range of 1 to 10 µM; in experiment [2], 10 to 25 µM.

On to `O=C(C(=Cc1c(O)cc(O)cc1O)SCc1ccc(Cl)cc1)c1ccc(Cl)cc1` [Example 192], for which the half-maximal inhibitory concentration (IC50) in experiment [1] and in experiment [2] was above 100 µM in each case.

With `COc1cc(OC)c(C=C(SCc2ccc(Cl)cc2)C(=O)c2ccc(Br)cc2)c(OC)c1` [Example 193], the IC50 in experiment [1] lay in the range of 10 to 25 µM; in experiment [2], 1 to 10 µM.

In the case of `COc1cc(OC)c(C=C(SCc2ccc(Cl)cc2)C(=O)c2ccc([N+](=O)[O-])cc2)c(OC)c1` [Example 194], the IC50 was 50 to 100 µM in experiment [1] and above 100 µM in experiment [2].

Take `O=C(C(=Cc1ccc(Cl)cc1Cl)SCc1ccc(Cl)cc1)c1ccc(Cl)cc1` [Example 195]: the IC50 in experiment [1] and in experiment [2] was 25 to 50 µM each time.

As to `O=C(C(=Cc1ccc(O)cc1O)SCc1ccc(Cl)cc1)c1ccc(Cl)cc1` [Example 196], the concentration for half-maximal inhibition (IC50) in experiment [1] and in experiment [2] was 50 to 100 µM throughout.

On to `Cc1ccc(C)c(C=C(SCc2ccc(Cl)cc2)C(=O)c2ccc(Cl)cc2)c1` [Example 197], for which the IC50 in experiment [1] and in experiment [2] was 10 to 25 µM in each case.

Consider `COc1ccccc1C=C(SCc1ccc(Cl)cc1)C(=O)c1ccc(Br)cc1` [Example 198], for which the IC50 lay within 10 to 25 µM in experiment [1] and 1 to 10 µM in experiment [2].

Turning to `COc1ccccc1C=C(SCc1ccc(Cl)cc1)C(=O)c1ccc(Cl)cc1` [Example 199], the IC50 in experiment [1] and in experiment [2] was 1 to 10 µM throughout.

Regarding `COc1ccccc1C=C(SCc1ccc(Cl)cc1)C(=O)c1ccc([N+](=O)[O-])cc1` [Example 200], the values for the IC50 in experiment [1] and in experiment [2] were 1 to 10 µM and 10 to 25 µM, respectively.

As for `O=C(C(=Cc1ccc[nH]1)SCc1ccc(Cl)cc1)c1ccc(Cl)cc1` [Example 201], the concentration for half-maximal inhibition (IC50) lay in the range of 10 to 25 µM in experiment [1] and 25 to 50 µM in experiment [2].

On to `Cc1cc(C)cc(C=C(SCc2ccc(Cl)cc2)C(=O)c2ccc(Cl)cc2)c1` [Example 202], for which the half-maximal inhibitory concentration (IC50) in experiment [1] and in experiment [2] was 10 to 25 µM each time.

For the compound `COc1ccc(C=C(SCc2ccc(Cl)cc2)C(=O)c2ccc(Br)cc2)cc1O` [Example 203], the 50% inhibitory concentration (IC50) in experiment [1] and in experiment [2] was 1 to 10 µM each time.

Take `COc1ccc(C=C(SCc2ccc(Cl)cc2)C(=O)c2ccc(Cl)cc2)cc1O` [Example 204]: the IC50 in experiment [1] was at most 1 µM; in experiment [2], 1 to 10 µM.

For `Cc1ccsc1C=C(SCc1ccc(Cl)cc1)C(=O)c1ccc(Br)cc1` [Example 205], the half-maximal inhibitory concentration (IC50) in experiment [1] and in experiment [2] was 25 to 50 µM each time.

With `Cc1ccsc1C=C(SCc1ccc(Cl)cc1)C(=O)c1ccc(Cl)cc1` [Example 206], the 50% inhibitory concentration (IC50) in experiment [1] and in experiment [2] was 50 to 100 µM in each case.

For the compound `Cc1ccsc1C=C(SCc1ccc(Cl)cc1)C(=O)c1ccc([N+](=O)[O-])cc1` [Example 207], the half-maximal inhibitory concentration (IC50) in experiment [1] and in experiment [2] was above 100 µM in each case.

As for `CN(C)c1ccc(C=C(SCc2ccc(Cl)cc2)C(=O)c2ccc(Br)cc2)cc1` [Example 208], the IC50 in experiment [1] lay within 1 to 10 µM; in experiment [2], 10 to 25 µM.

Consider `CN(C)c1ccc(C=C(SCc2ccc(Cl)cc2)C(=O)c2ccc(C(=O)O)cc2)cc1` [Example 209], for which the concentration for half-maximal inhibition (IC50) in experiment [1] and in experiment [2] was 1 to 10 µM throughout.

For the compound `CN(C)c1ccc(C=C(SCc2ccc(Cl)cc2)C(=O)c2ccc(Cl)cc2)cc1` [Example 210], the half-inhibitory concentration (IC50) in experiment [1] is 10 to 25 µM; in experiment [2], above 100 µM.

Take `CN(C)c1ccc(C=C(SCc2ccc(Cl)cc2)C(=O)c2ccc([N+](=O)[O-])cc2)cc1` [Example 211]: the IC50 in experiment [1] was 50 to 100 µM; in experiment [2], above 100 µM.

As for `O=C(C(=Cc1ccc(OCc2ccccc2)cc1)SCc1ccc(Cl)cc1)c1ccc(Cl)cc1` [Example 212], the IC50 lay within 10 to 25 µM in experiment [1] and 1 to 10 µM in experiment [2].

As to `O=C(O)c1ccc(C(=O)C(=Cc2ccc(Br)c([N+](=O)[O-])c2)SCc2ccc(Cl)cc2)cc1` [Example 213], the results for the half-inhibitory concentration (IC50) in experiment [1] and in experiment [2] were at most 1 µM and 1 to 10 µM, respectively.

For `O=C(C(=Cc1ccc(Br)cc1)SCc1ccc(Cl)cc1)c1ccc(Br)cc1` [Example 214], the IC50 in experiment [1] and in experiment [2] was 1 to 10 µM throughout.

For `O=C(C(=Cc1ccc(Br)cc1)SCc1ccc(Cl)cc1)c1ccc(Cl)cc1` [Example 215], the IC50 in experiment [1] and in experiment [2] was 1 to 10 µM throughout.

Consider `O=C(O)c1ccc(C(=O)C(=Cc2ccc(Cl)c([N+](=O)[O-])c2)SCc2ccc(Cl)cc2)cc1` [Example 216], for which the IC50 in experiment [1] was at most 1 µM; in experiment [2], 1 to 10 µM.

As to `O=C(C(=Cc1ccc(Cl)cc1)SCc1ccc(Cl)cc1)c1ccccc1Cl` [Example 217], the 50% inhibitory concentration (IC50) fell in the range of 1 to 10 µM in experiment [1] and 50 to 100 µM in experiment [2].

`O=C(C(=Cc1ccc(Cl)cc1)SCc1ccc(Cl)cc1)c1ccc(Br)cc1` [Example 218]: the IC50 in experiment [1] fell in the range of 1 to 10 µM; in experiment [2], 10 to 25 µM.

As to `O=C(C(=Cc1ccc(O)c([N+](=O)[O-])c1)SCc1ccc(Cl)cc1)c1ccc(Cl)cc1` [Example 220], the IC50 in experiment [1] and in experiment [2] was 10 to 25 µM each time.

On to `O=C(C(=Cc1ccc(O)cc1)SCc1ccc(Cl)cc1)c1ccc(Br)cc1` [Example 221], for which the half-inhibitory concentration (IC50) in experiment [1] lay in the range of 1 to 10 µM; in experiment [2], 10 to 25 µM.

Regarding `O=C(C(=Cc1ccc(O)cc1)SCc1ccc(Cl)cc1)c1ccc(Cl)cc1` [Example 222], the IC50 in experiment [1] lay in the range of 1 to 10 µM; in experiment [2] it was 10 to 25 µM.

For the compound `CSc1ccc(C=C(SCc2ccc(Cl)cc2)C(=O)c2ccc(C(=O)O)cc2)cc1` [Example 223], the IC50 in experiment [1] and in experiment [2] was above 100 µM each time.

For the compound `CSc1ccc(C=C(SCc2ccc(Cl)cc2)C(=O)c2ccc(Cl)cc2)cc1` [Example 224], the IC50 in experiment [1] was 1 to 10 µM; in experiment [2], 25 to 50 µM.

For `COc1ccc(C=C(SCc2ccc(Cl)cc2)C(=O)c2ccc(Br)cc2)cc1` [Example 225], the half-maximal inhibitory concentration (IC50) is 1 to 10 µM in experiment [1] and 10 to 25 µM in experiment [2].

In the case of `COc1ccc(C=C(SCc2ccc(Cl)cc2)C(=O)c2ccc(Br)cc2)cc1` [Example 226], the IC50 lay within 1 to 10 µM in experiment [1] and 25 to 50 µM in experiment [2].

Take `COc1ccc(C=C(SCc2ccc(Cl)cc2)C(=O)c2ccc(C(=O)O)cc2)cc1` [Example 227]: the IC50 in experiment [1] and in experiment [2] was 25 to 50 µM in each case.

For the compound `COc1ccc(C=C(SCc2ccc(Cl)cc2)C(=O)c2ccc(Cl)cc2)cc1` [Example 228], the half-inhibitory concentration (IC50) is 1 to 10 µM in experiment [1] and 10 to 25 µM in experiment [2].

Regarding `Cc1ccc(C=C(SCc2ccc(Cl)cc2)C(=O)c2ccc(Br)cc2)s1` [Example 229], the results for the IC50 in experiment [1] and in experiment [2] were 50 to 100 µM and above 100 µM, respectively.

`Cc1ccc(C=C(SCc2ccc(Cl)cc2)C(=O)c2ccc(Cl)cc2)s1` [Example 230]: the half-maximal inhibitory concentration (IC50) in experiment [1] and in experiment [2] was 50 to 100 µM throughout.

As to `Cc1ccc(C=C(SCc2ccc(Cl)cc2)C(=O)c2ccc([N+](=O)[O-])cc2)s1` [Example 231], the half-inhibitory concentration (IC50) in experiment [1] and in experiment [2] was 25 to 50 µM throughout.

As to `COc1cc(OC)c(C=C(SCc2ccc(F)cc2)C(=O)c2ccc(Br)cc2)c(OC)c1` [Example 233], the half-inhibitory concentration (IC50) in experiment [1] and in experiment [2] was 1 to 10 µM throughout.

On to `COc1cc(OC)c(C=C(SCc2ccc(F)cc2)C(=O)c2ccc(Cl)cc2)c(OC)c1` [Example 234], for which the half-maximal inhibitory concentration (IC50) in experiment [1] and in experiment [2] was 10 to 25 µM each time.

Turning to `Cc1ccc(C)c(C=C(SCc2ccc(F)cc2)C(=O)c2ccc(Br)cc2)c1` [Example 235], the results for the 50% inhibitory concentration (IC50) in experiment [1] and in experiment [2] were 50 to 100 µM and 1 to 10 µM, respectively.

Regarding `O=C(C(=Cc1ccccc1OCc1ccccc1)SCc1ccc(F)cc1)c1ccc(Br)cc1` [Example 236], the 50% inhibitory concentration (IC50) in experiment [1] and in experiment [2] was 1 to 10 µM in each case.

Regarding `COc1ccccc1C=C(SCc1ccc(F)cc1)C(=O)c1ccc(Cl)cc1` [Example 240], the IC50 in experiment [1] was 1 to 10 µM; in experiment [2] it was 10 to 25 µM.

Turning to `Cc1cc(C)cc(C=C(SCc2ccc(F)cc2)C(=O)c2ccc(Br)cc2)c1` [Example 242], the figures for the 50% inhibitory concentration (IC50) in experiment [1] and in experiment [2] were 1 to 10 µM and 10 to 25 µM, respectively.

`COc1ccc(C=C(SCc2ccc(F)cc2)C(=O)c2ccc(C(=O)O)cc2)cc1O` [Example 244]: the IC50 in experiment [1] is 1 to 10 µM; in experiment [2] it was 10 to 25 µM.

As to `Cc1ccsc1C=C(SCc1ccc(F)cc1)C(=O)c1ccc(Br)cc1` [Example 246], the IC50 in experiment [1] is above 100 µM; in experiment [2] it was 50 to 100 µM.

In the case of `CCN(CC)CCNC(=O)c1c(C)[nH]c(C=C(SCc2ccc(F)cc2)C(=O)c2ccc(C(=O)O)cc2)c1C` [Example 248], the IC50 in experiment [1] and in experiment [2] was 50 to 100 µM throughout.

For `CN(C)c1ccc(C=C(SCc2ccc(F)cc2)C(=O)c2ccc(Br)cc2)cc1` [Example 249], the half-maximal inhibitory concentration (IC50) in experiment [1] lay within 1 to 10 µM; in experiment [2], 25 to 50 µM.

With `CN(C)c1ccc(C=C(SCc2ccc(F)cc2)C(=O)c2ccc(C(=O)O)cc2)cc1` [Example 250], the results for the IC50 in experiment [1] and in experiment [2] were 10 to 25 µM and 25 to 50 µM, respectively.

In the case of `O=C(O)c1ccc(C(=O)C(=Cc2ccc(Br)c([N+](=O)[O-])c2)SCc2ccc(F)cc2)cc1` [Example 252], the half-maximal inhibitory concentration (IC50) in experiment [1] was at most 1 µM; in experiment [2], 1 to 10 µM.

Consider `O=C(C(=Cc1ccc(Br)cc1)SCc1ccc(F)cc1)c1ccc(Br)cc1` [Example 253], for which the figures for the 50% inhibitory concentration (IC50) in experiment [1] and in experiment [2] were 1 to 10 µM and 25 to 50 µM, respectively.

With `O=C(C(=Cc1ccc(Br)cc1)SCc1ccc(F)cc1)c1ccc(Cl)cc1` [Example 254], the values for the IC50 in experiment [1] and in experiment [2] were 1 to 10 µM and 10 to 25 µM, respectively.
